Assay results taken from the supplement of paper PMC13380429.

Columns and labels:
Conditions in all cases: 72 h
HepG2 [1] = assay: drug sensitivity score (DSS) for viability; higher = more toxic; extreme values may be limits of the assay
Vero E6 [2] = assay: as above
Calu-3 [3] = assay: as above
Caco-2 [4] = assay: as above
U2OS [5] = assay: as above
Calu-3 [6] = assay: relative viability EC50 (midpoint between 100% and the lowest measured viability); higher = less toxic
HepG2 [7] = assay: cell viability relative to DMSO; higher = less toxic
Vero E6 [8] = assay: as above
Calu-3 [9] = assay: as above
Caco-2 [10] = assay: as above
U2OS [11] = assay: as above
Caco-2 [12] = assay: relative viability EC50 (midpoint between 100% and the lowest measured viability); higher = less toxic
Vero E6 [13] = assay: as above
U2OS [14] = assay: as above

Row | Compound | drug sensitivity score (HepG2 [1]) | drug sensitivity score (Vero E6 [2]) | drug sensitivity score (Calu-3 [3]) | drug sensitivity score (Caco-2 [4]) | drug sensitivity score (U2OS [5]) | relative viability EC50 (Calu-3 [6]) | cell viability (HepG2 [7]; 1 nM) | cell viability (HepG2 [7]; 10 nM) | cell viability (HepG2 [7]; 100 nM) | cell viability (HepG2 [7]; 1000 nM) | cell viability (HepG2 [7]; 10000 nM) | cell viability (Vero E6 [8]; 1 nM) | cell viability (Vero E6 [8]; 10 nM) | cell viability (Vero E6 [8]; 100 nM) | cell viability (Vero E6 [8]; 1000 nM) | cell viability (Vero E6 [8]; 10000 nM) | cell viability (Calu-3 [9]; 1 nM) | cell viability (Calu-3 [9]; 10 nM) | cell viability (Calu-3 [9]; 100 nM) | cell viability (Calu-3 [9]; 1000 nM) | cell viability (Calu-3 [9]; 10000 nM) | cell viability (Caco-2 [10]; 1 nM) | cell viability (Caco-2 [10]; 10 nM) | cell viability (Caco-2 [10]; 100 nM) | cell viability (Caco-2 [10]; 1000 nM) | cell viability (Caco-2 [10]; 10000 nM) | cell viability (U2OS [11]; 1 nM) | cell viability (U2OS [11]; 10 nM) | cell viability (U2OS [11]; 100 nM) | cell viability (U2OS [11]; 1000 nM) | cell viability (U2OS [11]; 10000 nM) | relative viability EC50 (Caco-2 [12]) | relative viability EC50 (Vero E6 [13]) | relative viability EC50 (U2OS [14])
1 | CC(C)(C)c1ccc(-c2nc3c(N4CCN(Cc5ccc6nccnc6c5)CC4)cccc3[nH]2)cc1 | 1.9 | 2.4 | 0 | 2 | 2.4 | > 10 µM | 98.3% | 96.5% | 94.4% | 97.7% | 66.9% | 102% | 105% | 103% | 95.6% | 64.5% | 104% | 104% | 111% | 106% | 92.1% | 109% | 91.7% | 90.3% | 100% | 59.7% | 92.8% | 101% | 93.4% | 99.2% | 54.8% |  |  | 
2 | CCCCC1CCC(c2nc(-c3ccncc3)no2)CC1 (stereo not given) |  |  |  | 0 |  |  |  |  |  |  |  |  |  |  |  |  |  |  |  |  |  | 106% | 98.8% | 104% | 98.7% | 103% |  |  |  |  |  | > 10 µM |  | 
3 | COc1cc(N)c(Cl)cc1C(=O)OCCCN1CCCCC1 |  | 0 | 0 | 0 | 0 | > 10 µM |  |  |  |  |  | 106% | 104% | 107% | 104% | 99.7% | 106% | 102% | 93.5% | 114% | 104% | 116% | 108% | 104% | 98.3% | 107% | 101% | 94.9% | 98.1% | 104% | 102% | > 10 µM | > 10 µM | > 10 µM
4 | CS(=O)(=O)Nc1c(O)ccc2c1CCC[C@H]2C1=NCCN1 |  |  |  | 0 |  |  |  |  |  |  |  |  |  |  |  |  |  |  |  |  |  | 109% | 104% | 101% | 101% | 96.7% |  |  |  |  |  | > 10 µM |  | 
5 | C[C@H](N/C(=N/C#N)Nc1cccc2ncccc12)c1ccccc1 |  |  | 0 | 0 | 0 | > 10 µM |  |  |  |  |  |  |  |  |  |  | 97% | 102% | 107% | 103% | 94.8% | 101% | 112% | 104% | 97.8% | 98.6% | 108% | 102% | 99.1% | 109% | 101% | > 10 µM |  | > 10 µM
6 | Cc1cc2c(cc1C(F)(F)F)N(C(=O)Nc1ccc(Oc3cccnc3C)nc1)CC2 |  |  | 0.4 | 0 | 0 | > 10 µM |  |  |  |  |  |  |  |  |  |  | 96.4% | 98.8% | 96% | 104% | 80.6% | 97.3% | 101% | 104% | 97.1% | 91.2% | 101% | 106% | 95.8% | 105% | 95.4% | > 10 µM |  | > 10 µM
7 | O=C1NC(=O)/C(=C/c2ccc3nccc(-c4ccncc4)c3c2)S1 | 3.6 | 3.9 | 5.6 | 4.2 | 4.8 | 1.94 µM | 95.1% | 105% | 94.9% | 93% | 53.8% | 93.6% | 99.1% | 89.9% | 90.5% | 53.5% | 103% | 101% | 97.8% | 89.1% | 31.4% | 92.9% | 96.2% | 89.3% | 95.5% | 36% | 96.1% | 95.5% | 100% | 91.7% | 37.9% | 2.6 µM |  | 2.09 µM
8 | O=[N+]([O-])c1cc([N+](=O)[O-])c(/C=C/c2ccc(Cl)c(Cl)c2)cc1/C=C/c1ccc(Cl)c(Cl)c1 |  | 0 | 0 | 0.1 | 0 | > 10 µM |  |  |  |  |  | 103% | 105% | 101% | 102% | 97.3% | 100% | 98.5% | 87.2% | 97.6% | 95.9% | 91.4% | 97.2% | 89% | 102% | 86.3% | 68.7% | 102% | 94.8% | 110% | 94.1% | > 10 µM | > 10 µM | > 10 µM
9 | CCNCCCNCCCCNCCCNCC [1,12-Besm] | 4.7 | 1.7 | 0.1 | 3.2 | 1.3 | > 10 µM | 104% | 104% | 106% | 86.7% | 50.5% | 101% | 104% | 99.4% | 97.5% | 70.5% | 95.6% | 110% | 110% | 102% | 86.7% | 103% | 86.3% | 96.5% | 91.7% | 61.8% | 102% | 96.1% | 96.6% | 89.5% | 79.1% |  |  | > 10 µM
10 | O=c1[nH]cc(F)c(=O)[nH]1 [5-fluorouracil] | 4.7 | 2.5 | 0 | 1.4 | 2.4 | > 10 µM | 103% | 93% | 103% | 83.7% | 54.4% | 102% | 95.7% | 106% | 95.8% | 62.9% | 93.5% | 99.2% | 98.1% | 101% | 90.5% | 80% | 103% | 85.7% | 93.4% | 79.6% | 100% | 97.4% | 97.6% | 95.6% | 64% | > 10 µM |  | 
11 | CCOC(=O)c1cc(C#N)c(N2CCC(C(=O)NS(=O)(=O)Cc3ccccc3)CC2)nc1C [AZD1283] |  | 0 | 0 | 0 | 0 | > 10 µM |  |  |  |  |  | 103% | 106% | 100% | 104% | 99.5% | 96.2% | 104% | 112% | 97.2% | 104% | 98.4% | 94.3% | 101% | 95.5% | 97% | 95.7% | 100% | 105% | 91.2% | 101% | > 10 µM | > 10 µM | > 10 µM
12 | O=C(Nc1cccc(Nc2ncc(Br)c(NCCc3cnc[nH]3)n2)c1)N1CCCC1 [BX-912] | 4.7 | 0 | 0 | 0 | 2.5 | > 10 µM | 103% | 91.8% | 103% | 82.3% | 55.8% | 97.7% | 93.5% | 94.4% | 95.8% | 91.5% | 108% | 95.4% | 104% | 102% | 91.2% | 103% | 93.4% | 102% | 94.6% | 101% | 102% | 93.2% | 97.5% | 98.3% | 55.9% | > 10 µM | > 10 µM | 
13 | CCCCCCCCCCCCCCOc1ccc(C(=O)O)o1 [KD-023] | 1 | 0.8 |  | 1.1 | 0 |  | 99.8% | 103% | 103% | 105% | 69.9% | 102% | 102% | 100% | 99% | 78.4% |  |  |  |  |  | 95% | 92.9% | 105% | 92.5% | 82.5% | 97.4% | 97.4% | 101% | 95.8% | 103% | > 10 µM | > 10 µM | > 10 µM
14 | Cc1ccc(NC(=O)CCCCCC(=O)Nc2ccccc2N)cc1 [TC-H-106] | 3.3 | 0.6 | 3.4 | 0.9 | 1.1 |  | 99.7% | 109% | 98.9% | 93.4% | 57.3% | 105% | 102% | 98.2% | 102% | 77.6% | 98.5% | 99.7% | 92.9% | 87.4% | 59.4% | 103% | 97% | 97.6% | 96.2% | 81.9% | 101% | 96.4% | 98.4% | 95.7% | 80.3% | > 10 µM | > 10 µM | > 10 µM
15 | CCCCNNC(=O)c1ccc(Br)cc1 [UF-010] | 3.6 | 1.2 | 2.4 | 0.3 | 1.3 |  | 106% | 94% | 105% | 88% | 61.5% | 104% | 98.9% | 101% | 102% | 69.6% | 101% | 98.2% | 96.8% | 95.6% | 64.2% | 99.5% | 91.9% | 92.8% | 101% | 84.3% | 100% | 104% | 100% | 99.8% | 70.2% | > 10 µM |  | 
16 | COC(=O)C1=C(C)NC(C)=C(C(=O)O[C@H]2CCN(Cc3ccccc3)C2)[C@H]1c1cccc([N+](=O)[O-])c1 [barnidipine] | 1.4 | 0 | 0.9 | 0.8 | 0.1 | > 10 µM | 105% | 105% | 85.1% | 95.6% | 73.8% | 87.7% | 88.6% | 105% | 106% | 87.7% | 100% | 99.4% | 99.8% | 95.9% | 82.4% | 108% | 92.8% | 102% | 105% | 73.1% | 98.6% | 103% | 97.5% | 98.2% | 88.8% |  | > 10 µM | > 10 µM
17 | O=C(c1ccccc1)C(O)c1ccccc1 (stereo not given) [benzoin] | 0.3 | 0 | 0 |  | 0 |  |  |  |  |  |  |  |  |  |  |  |  |  |  |  |  |  |  |  |  |  |  |  |  |  |  |  |  | 
18 | CC(OC(=O)OC1CCCCC1)OC(=O)C1=C(CSc2nnnn2CCN(C)C)CS[C@@H]2[C@H](NC(=O)Cc3csc(N)n3)C(=O)N12 (stereo not given in full) [cefotiam-cilexetil] |  |  | 0 | 0 | 0 | > 10 µM |  |  |  |  |  |  |  |  |  |  | 96.4% | 90% | 99.1% | 96.9% | 109% | 82.3% | 93.3% | 96.8% | 113% | 117% | 96.5% | 102% | 98.4% | 99.5% | 94.8% | > 10 µM |  | > 10 µM
